Test results taken from ChEMBL document CHEMBL6103592, “Discovery of novel thiazole-pleuromutilin derivatives with potent antibacterial activity” (Eur J Med Chem, 2025).
≈ marks a conversion by molar mass, not a printed value. Calls of active or inactive are those of the source. The calls are words filed in the database; no cut-off is given here.

Experiments:
[1] = test system: Mycoplasma; test: Antibacterial activity against Mycoplasma F3 assessed as inhibition of visible bacterial growth incubated for 24 hrs by CLSI based broth microdilution method; format: functional
[2] = Acute toxicity in rat assessed as relative kidney weight at 2000 mg/kg, po administered for 7 days followed by readministration after 7 days and measured at 14 days (reference value: 0.83 +/- 0.08%); format: organism-based; conditions: in vivo, 336 h, time 14 day
[3] = test system: Staphylococcus aureus; test: Antibacterial efficacy against methicillin-resistant Staphylococcus aureus ATCC 43300 infected in cyclophosphamide-induced neutropenic systemic infection Kunming mouse model assessed as reduction in bacterial load in kidney at 20 mg/kg, iv pretreated with cyclophosphamide for 1 hr followed by compound addition and measured after 5 days; format: functional, organism-based; conditions: time 5.0 day
[4] = Cytotoxicity against human HEK293T cells assessed as cell viability incubated for 24 hrs by CCK-8 assay; format: toxicity, cell-based, HEK-293T
[5] = Acute toxicity in rat assessed as absolute spleen weight at 2000 mg/kg, po administered for 7 days followed by readministration after 7 days and measured at 14 days (reference value: 0.53 +/- 0.04 g); format: organism-based; conditions: in vivo, 336 h, time 14 day
[6] = Acute toxicity in rat assessed as reduction in water consumption at 2000 mg/kg, po measured for 14 days; format: organism-based; conditions: in vivo, 336 h, time 14 day
[7] = test system: Staphylococcus aureus; test: Antibacterial activity against methicillin-resistant Staphylococcus aureus ATCC 43300 assessed as reduction in bacterial proteins level at 0.5 to 2 microg/ml measured for 4 hrs; format: functional, organism-based; conditions: dose 0.5-2 µg/ml
[8] = Acute toxicity in rat assessed as absolute heart weight at 2000 mg/kg, po measured for 7 days (reference value: 0.77 +/- 0.12 g); format: organism-based; conditions: in vivo, 168 h, time 7 day
[9] = Acute toxicity in rat assessed as relative uterus weight at 2000 mg/kg, po measured for 7 days (reference value: 0.27 +/- 0.09%); format: organism-based; conditions: in vivo, 168 h, time 7 day
[10] = Acute toxicity in rat assessed as absolute uterus weight at 2000 mg/kg, po measured for 7 days (reference value: 0.52 +/- 0.18 g); format: organism-based; conditions: in vivo, 168 h, time 7 day
[11] = test system: Streptococcus agalactiae; test: Antibacterial activity against Streptococcus agalactiae assessed as inhibition of visible bacterial growth incubated for 24 hrs by CLSI based broth microdilution method; format: functional
[12] = Acute toxicity in rat assessed as body weight change at 2000 mg/kg, po measured at 24 hrs; format: organism-based; conditions: in vivo
[13] = test system: HepG2; test: Cytotoxicity against human HepG2 cells assessed as cell viability incubated for 24 hrs by CCK-8 assay; format: functional, cell-based; conditions: HepG2, 24 h
[14] = test system: Staphylococcus aureus; test: Antibacterial activity against methicillin-resistant Staphylococcus aureus ATCC 43300 assessed as inhibition of visible bacterial growth incubated for 24 hrs by CLSI based broth microdilution method; format: functional
[15] = Acute toxicity in rat assessed as tremors at 2000 mg/kg, po measured for 14 days; format: organism-based; conditions: in vivo, 336 h, time 14 day
[16] = Acute toxicity in rat assessed as pathological changes in spleen at 2000 mg/kg, po measured for 14 days; format: organism-based; conditions: in vivo, 336 h, time 14 day
[17] = test system: Staphylococcus aureus; test: Bactericidal activity against methicillin-resistant Staphylococcus aureus ATCC 43300 assessed as log reduction in bacterial count count at 6 times MIC incubated at 24 hrs by time-kill assay; format: functional
[18] = Acute toxicity in rat assessed as reduction in water consumption at 2000 mg/kg, po measured at 24 hrs; format: organism-based; conditions: in vivo
[19] = Acute toxicity in rat assessed as necrosis of epithelial cells at 2000 mg/kg, po measured for 14 days by H and E staining based analysis; format: organism-based; conditions: in vivo, 336 h, time 14 day
[20] = Cytotoxicity against human HEK293T cells assessed as cell viability at 200 micromol/L incubated for 24 hrs by CCK-8 assay relative to control; format: toxicity, cell-based, HEK-293T; conditions: dose 200 µmol/L, read-out: Activity
[21] = Acute toxicity in rat assessed as degeneration of endometrial epithelial cells at 2000 mg/kg, po measured for 14 days by H and E staining based analysis; format: organism-based; conditions: in vivo, 336 h, time 14 day
[22] = Acute toxicity in rat assessed as relative uterus weight at 2000 mg/kg, po administered for 7 days followed by readministration after 7 days and measured at 14 days (reference value: 0.27 +/- 0.09%); format: organism-based; conditions: in vivo, 336 h, time 14 day
[23] = Acute toxicity in rat assessed as relative lung weight at 2000 mg/kg, po administered for 7 days followed by readministration after 7 days and measured at 14 days (reference value: 0.58 +/- 0.03 %); format: organism-based; conditions: in vivo, 336 h, time 14 day
[24] = Acute toxicity in rat assessed as swelling in uterus at 2000 mg/kg, po measured for 14 days by H and E staining based analysis; format: organism-based; conditions: in vivo, 336 h, time 14 day
[25] = Acute toxicity in rat assessed as pathological changes in lung at 2000 mg/kg, po measured for 14 days; format: organism-based; conditions: in vivo, 336 h, time 14 day
[26] = Acute toxicity in rat assessed as animal death at 2000 mg/kg, po measured for 14 days; format: organism-based; conditions: in vivo, 336 h, time 14 day
[27] = Acute toxicity in rat assessed as relative kidney weight at 2000 mg/kg, po measured for 7 days (reference value: 0.83 +/- 0.08%); format: organism-based; conditions: in vivo, 168 h, time 7 day
[28] = Acute toxicity in rat assessed as absolute heart weight at 2000 mg/kg, po administered for 7 days followed by readministration after 7 days and measured at 14 days (reference value: 0.77 +/- 0.12 g); format: organism-based; conditions: in vivo, 336 h, time 14 day
[29] = Acute toxicity in rat assessed as pathological changes in liver at 2000 mg/kg, po measured for 14 days; format: organism-based; conditions: in vivo, 336 h, time 14 day

C=C[C@]1(C)C[C@@H](OC(=O)CSc2nc(OC(=O)c3ccc(C(C)(C)C)cc3)cs2)[C@]2(C)[C@H](C)CC[C@]3(CCC(=O)[C@H]32)[C@@H](C)[C@@H]1O
MIC [1]: 0.125 µg/mL (≈ 0.191 µM)
Activity [2]: 0.76%
Activity [3]: inactive
IC50 at 24 h [4]: > 200 µM
Activity [5]: 0.53 g
Activity [6]: Toxic
Activity [7]: Active
Activity [8]: 0.75 g
Activity [9]: 0.27%
Activity [10]: 0.52 g
MIC [11]: 0.063 µg/mL (≈ 0.0963 µM)
Activity [12]: Non-toxic
IC50 [13]: > 200 µM
MIC [14]: 0.25 µg/mL (≈ 0.382 µM)
Activity [15]: Non-toxic
Activity [16]: Non-toxic
log(activity) [17]: 3.08
Activity [18]: Non-toxic
Activity [19]: Non-toxic
viability at 24 h, 200 µM [20]: 60%
Activity [21]: Non-toxic
Activity [22]: 0.23%
Activity [23]: 0.59%
Activity [24]: Non-toxic
Activity [25]: Non-toxic
Activity [26]: Non-toxic
Activity [27]: 0.8%
Activity [28]: 0.78 g
Activity [29]: Non-toxic
